Paper PMC9321647, “Curcumin-Based β-Diketo Ligands for Ga^3+: Thermodynamic Investigation of Potential Metal-Based Drugs” (Pharmaceuticals, 2022)

Key:
Type in all cases: physicochemical
[1] = Kinetic stability of ligands in simulated physiological conditions (UV-Vis); conditions: for Stability: percentage of the residual ligand after 4 h: PBS, pH 7.4, 37 °C in darkness; for Stability ranking (residual ligand after 4 h): rank among the 7 ligands, 1 = most stable
Description: The chemical stability of ligands and metal complexes at the M:L 1:L molar ratio at 37 °C in darkness was evaluated by UV−Vis spectroscopy as a change in absorbance in the 250−600 nm range over an overall period of 8 h. Solutions (5.0 × 10^–5 mol L^–1) of the ligands were prepared in 0.1 mol L^–1 phosphate-buffered solution (PBS) at pH 7.4. Spectra were recorded every 30 min. All profiles were linearized as the hyperbolic function defined by Equation (2), which represents an empirical model that describes drug decomposition or release well [42]:(2) t/f%=at+b where f% is the percentage of the residual compound at time t (min) referred to the starting concentration at time zero determined by reading the absorbance at λmax.

[2] = Spectrophotometric pH-metric titrations of Ga^3+:ligand systems (stability constants, pGa, speciation); conditions: for log β 112 overall stability constant (Ga^3+) / log β 124 overall stability constant (Ga^3+) / logK11 apparent formation constant (Ga^3+, M:L 1:1) / logK12 apparent formation constant (Ga^3+, M:L 1:2): 298 K; for log β 112 overall stability constant (Ga^3+) / log β 124 overall stability constant (Ga^3+): HypSpec; for logK11 apparent formation constant (Ga^3+, M:L 1:1) / logK12 apparent formation constant (Ga^3+, M:L 1:2): estimated from logβMLH; for Prevailing Species (pH 5.5) / Prevailing Species (pH 7.4): Ga^3+ complex species; for Prevailing Species (pH 7.4): ** possible formation of gallium hydroxide species; for pGa (−log[Ga^3+]free): [Ga^3+]total = 1 μM, [L]total = 10 μM, pH 7.4, 25 °C
Description: UV–visible spectra were recorded with a JASCO V-570 UV/Vis/NIR spectrophotometer at 298 K in the 250–600 nm spectral range employing quartz cells (1 cm optical path). To perform spectrophotometric titrations, ligands (denoted generally as L in the following) were dissolved in methanol to give a mother solution (2.50 mM), that was then diluted in water in order to obtain a final concentration of 50 μM. The metal/ligand (M:L) solutions were obtained by adding appropriate quantities of Ga(NO3)3 as methanol solutions (5–10 mM) in order to obtain the metal-to-ligand 1:1 molar ratio (L = 50 μM and V = 25 mL). For both L and M:L systems, pH (initial value of about 5) was varied by adding small amounts (<1 μL) of concentrated NaOH (4 M) up to ca. pH 11, thus to consider volume variations negligible. To evaluate the complexation ratio, constant additions of the M solution (10 µL each time, M = 10^–2 M) were dropped into the ligand solution (V = 25 mL, L = 50 μM) using a micropipette in order to reach different M:L molar ratios. A constant ionic strength (NaNO3, 0.1 M) was maintained in all experiments. Spectrophotometric investigations of iron(III) systems were performed in the same conditions; the Fe^3+ solution was freshly prepared in methanol starting from Fe(NO3)3·9H2O. The overall protonation constants (logβqr) and the overall stability constants of metal complexes (logβpqr) were evaluated from spectrophotometric data. The stability constants (βpqr), defined by the following equations:(3) pM^m++qL^l^−+rH^+⇌MpLqHr(mp−lq+r) (4) βpqr=[MpLqHr(mp−lq+r)]/[M^m+]^p·[L^l−]^q·[H^+]^r where L is the ligand in the completely dissociated form and H is proton, were refined using least-squares calculation in HypSpec. The results of least-squares calculation include the standard deviations and correlation coefficients of the refined parameters. The quantities are obtained by performing error propagation calculation from the experimental errors onto the parameters. The stability constant refinement furnishes least-squares estimates of the standard deviation, σ, of the stability constant β. The error on logβ is calculated as follows: σ(logβ) = [log(β + σ) − log(β − σ)]/2.
(§1) Hydroxide species, such as [Ga(OH)2]^+, were taken into account for calculations. The hydrolysis constants for Ga^3+ are as follows: logβ1,1,0 = −3.93; logβ2,1,0 = −7.73; logβ3,1,0 = −12.38; logβ4,1,0 = −15.96; logβ32,13,0 = −66.3; logβ3,1,0(s) = −3.54 [43]; pGa is defined as (−log[Ga^3+]free) and is calculated at specific conditions (Ga^3+total = 1 μM, Ltotal = 10 μM, pH 7.4, 25 °C). For the calculation of the iron(III) overall stability constants, the presence of [Fe(OH)]^2+, [Fe(OH)2]^+ and [Fe(OH)3] species was taken into account.

[3] = Iron-chelating ability by spectrophotometric analysis / transmetalation; conditions: for logβ124(Fe): Fe^3+, same conditions as Ga^3+ systems
Excerpt: Compounds 4 and 5 were selected to evaluate iron-chelating ability by spectrophotometric analysis in the same conditions as the ones applied to carry out investigations on Ga^3+ systems. The calculated logβ124(Fe) values were 56.2 (2) and 58.6 (4) for 4 and 5, respectively. From the difference between the logβ values of the complexes with two metal ions, it is possible to calculate the apparent stability constant K (logK = logβ124(Fe) − logβ124(Ga)) associated with the transmetalation reaction (Equation (1)). (1) Fe^3++[Ga(H2L)2]^+ ⇆ […]+[Fe(H2L)2]^+
UV–visible spectra were recorded with a JASCO V-570 UV/Vis/NIR spectrophotometer at 298 K in the 250–600 nm spectral range employing quartz cells (1 cm optical path). To perform spectrophotometric titrations, ligands (denoted generally as L in the following) were dissolved in methanol to give a mother solution (2.50 mM), that was then diluted in water in order to obtain a final concentration of 50 μM. The metal/ligand (M:L) solutions were obtained by adding appropriate quantities of Ga(NO3)3 as methanol solutions (5–10 mM) in order to obtain the metal-to-ligand 1:1 molar ratio (L = 50 μM and V = 25 mL). For both L and M:L systems, pH (initial value of about 5) was varied by adding small amounts (<1 μL) of concentrated NaOH (4 M) up to ca. pH 11, thus to consider volume variations negligible. […] The overall protonation constants (logβqr) and the overall stability constants of metal complexes (logβpqr) were evaluated from spectrophotometric data. […] The quantities are obtained by performing error propagation calculation from the experimental errors onto the parameters. […] The error on logβ is calculated as follows: σ(logβ) = [log(β + σ) − log(β − σ)]/2.
as §1, with “For the calculation of the iron(III) overall stability constants, the presence of [Fe(OH)]^2+, [Fe(OH)2]^+ and [Fe(OH)3] species was taken into account.” left out

Stability: percentage of the residual ligand after 4 h [1]	Stability ranking (residual ligand after 4 h) [1]	log β 112 overall stability constant (Ga^3+) [2]	log β 124 overall stability constant (Ga^3+) [2]	logK11 apparent formation constant (Ga^3+, M:L 1:1) [2]	logK12 apparent formation constant (Ga^3+, M:L 1:2) [2]	Prevailing Species (pH 5.5) [2]	Prevailing Species (pH 7.4) [2]	pGa (−log[Ga^3+]free) [2]	logβ124(Fe) [3]	LogK apparent stability constant of transmetalation (logβ124(Fe) − logβ124(Ga)) ([3]; Fe^3+ + [Ga(H2L)2]^+ exchange)	Compound
52%	5	28.54 (3)	57.00 (1)	8.09	16.1	[Ga(H2L)2]^+	[Ga(H2L)2]^+	23.2	58.6 (4)	–	2-((4Z,6E)-5-hydroxy-7-(4-hydroxyphenyl)-4-((E)-3-(4-hydroxy-3-ethoxyphenyl) acryloyl) hepta-4,6-dien-1-yl)isoindoline-1,3-dione [Compound 5]
42%	7	28.48 (5)	55.33 (5)	8.04	14.45	[Ga(H2L)2]^+	[Ga(H2L)2]^+	21.5	56.2 (2)	0.9(3)	COc1cc(/C=C/C(=O)C(CCCN2C(=O)c3ccccc3C2=O)C(=O)/C=C/c2ccc(O)c(OC)c2)ccc1O [Compound 4]
